Test results reported in ChEMBL document CHEMBL1201862, “PubChem BioAssay data set” (2004).
Activity calls are given as the source filed them.

Columns and labels:
H9c2 = test: cells; assay type: functional, cell-based; conditions: Rattus norvegicus, H9c2, Myocardium;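 further: confirmatory concentration-response retest of ultra-high-throughput screening hits for modulation of myocardial damage; cell death induced by hydrogen peroxide oxidative stress; compound pretreatment for 60 min then peroxide exposure for 2 h; potency is for protecting the cells against peroxide damage rather than for killing them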
INS1 = test: beta cell apoptosis inhibitors, cytokine rescue, dose response, luminescence, retest (AID 449756); assay type: functional, cell-based; conditions: Rattus norvegicus, INS1;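 further: cell death triggered by IL-1 beta plus TNF-alpha plus IFN-gamma mixture; protective hits raise ATP signal compared with cytokine alone wells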
[1] = molecular target: T1, Corticotropin-releasing factor receptor 2/Corticotropin-releasing factor-binding protein (Homo sapiens, UniProt P24387+Q13324); test: Dose Response confirmation of uHTS hits for small molecule antagonists of the CRF-binding protein and CRF-R2 receptor complex.; assay type: functional; conditions: read-out: IC50_Mean
T1 sequence (Q13324 whole entry): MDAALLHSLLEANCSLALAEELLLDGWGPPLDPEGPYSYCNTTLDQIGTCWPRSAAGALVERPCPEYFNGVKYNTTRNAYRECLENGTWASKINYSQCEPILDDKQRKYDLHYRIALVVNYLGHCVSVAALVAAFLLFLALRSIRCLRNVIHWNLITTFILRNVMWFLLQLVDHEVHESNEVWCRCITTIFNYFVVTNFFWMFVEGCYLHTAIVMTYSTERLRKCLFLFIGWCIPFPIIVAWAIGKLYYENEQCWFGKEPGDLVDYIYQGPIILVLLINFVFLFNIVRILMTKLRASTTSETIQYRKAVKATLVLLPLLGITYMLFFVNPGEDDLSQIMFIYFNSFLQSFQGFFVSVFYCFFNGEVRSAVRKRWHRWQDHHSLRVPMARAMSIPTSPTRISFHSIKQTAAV
T1 sequence (P24387 whole entry): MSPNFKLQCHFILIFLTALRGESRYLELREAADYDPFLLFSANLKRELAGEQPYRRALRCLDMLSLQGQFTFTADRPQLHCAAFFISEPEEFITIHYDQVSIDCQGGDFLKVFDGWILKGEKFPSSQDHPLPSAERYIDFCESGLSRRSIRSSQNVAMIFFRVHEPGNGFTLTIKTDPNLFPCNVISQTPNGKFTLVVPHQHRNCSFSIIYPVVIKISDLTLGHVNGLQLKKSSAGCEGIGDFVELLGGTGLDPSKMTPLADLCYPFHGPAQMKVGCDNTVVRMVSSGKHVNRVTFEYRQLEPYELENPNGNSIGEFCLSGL

[2] = molecular target: T1, Corticotropin-releasing factor receptor 2/Corticotropin-releasing factor-binding protein; test: activators of CRF receptor 2 with binding protein – uHTS hits, confirmation (AID 602473); assay type: functional; conditions: read-out: EC50_Mean
Large T antigen = Large T antigen (Simian virus 40, UniProt P03070); assay type: functional, Betapolyomavirus macacae;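 further: Confirmatory-stage PubChem screen for compounds that inhibit SV40 T antigen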
Large T antigen, sequence (P03070 whole entry): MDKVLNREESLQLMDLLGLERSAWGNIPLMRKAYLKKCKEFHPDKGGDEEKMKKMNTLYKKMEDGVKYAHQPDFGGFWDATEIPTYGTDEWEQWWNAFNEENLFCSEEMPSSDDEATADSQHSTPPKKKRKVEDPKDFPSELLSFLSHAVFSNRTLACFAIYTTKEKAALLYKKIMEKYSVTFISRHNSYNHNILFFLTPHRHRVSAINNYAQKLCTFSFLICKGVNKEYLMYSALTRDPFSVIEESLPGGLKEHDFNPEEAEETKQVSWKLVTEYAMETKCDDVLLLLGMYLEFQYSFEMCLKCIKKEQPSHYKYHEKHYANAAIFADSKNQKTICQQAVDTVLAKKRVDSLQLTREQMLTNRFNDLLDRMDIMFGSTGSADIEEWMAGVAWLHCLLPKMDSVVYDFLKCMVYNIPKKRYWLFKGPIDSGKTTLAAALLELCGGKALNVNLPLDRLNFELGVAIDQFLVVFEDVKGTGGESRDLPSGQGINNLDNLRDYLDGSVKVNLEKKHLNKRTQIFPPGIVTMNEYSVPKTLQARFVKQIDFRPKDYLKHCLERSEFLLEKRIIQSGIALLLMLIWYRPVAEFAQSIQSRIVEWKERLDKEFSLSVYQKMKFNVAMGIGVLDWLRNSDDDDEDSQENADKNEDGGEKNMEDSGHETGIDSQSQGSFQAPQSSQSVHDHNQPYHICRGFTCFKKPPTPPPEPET

[3] = molecular target: T2, Replicative DNA helicase DnaB (Mycobacterium tuberculosis, UniProt P9WMR3); test: DnaB intein splicing inhibitors, dose response, biochemical, cell-free fluorescence (AID 449749); assay type: functional
T2 sequence (P9WMR3 whole entry): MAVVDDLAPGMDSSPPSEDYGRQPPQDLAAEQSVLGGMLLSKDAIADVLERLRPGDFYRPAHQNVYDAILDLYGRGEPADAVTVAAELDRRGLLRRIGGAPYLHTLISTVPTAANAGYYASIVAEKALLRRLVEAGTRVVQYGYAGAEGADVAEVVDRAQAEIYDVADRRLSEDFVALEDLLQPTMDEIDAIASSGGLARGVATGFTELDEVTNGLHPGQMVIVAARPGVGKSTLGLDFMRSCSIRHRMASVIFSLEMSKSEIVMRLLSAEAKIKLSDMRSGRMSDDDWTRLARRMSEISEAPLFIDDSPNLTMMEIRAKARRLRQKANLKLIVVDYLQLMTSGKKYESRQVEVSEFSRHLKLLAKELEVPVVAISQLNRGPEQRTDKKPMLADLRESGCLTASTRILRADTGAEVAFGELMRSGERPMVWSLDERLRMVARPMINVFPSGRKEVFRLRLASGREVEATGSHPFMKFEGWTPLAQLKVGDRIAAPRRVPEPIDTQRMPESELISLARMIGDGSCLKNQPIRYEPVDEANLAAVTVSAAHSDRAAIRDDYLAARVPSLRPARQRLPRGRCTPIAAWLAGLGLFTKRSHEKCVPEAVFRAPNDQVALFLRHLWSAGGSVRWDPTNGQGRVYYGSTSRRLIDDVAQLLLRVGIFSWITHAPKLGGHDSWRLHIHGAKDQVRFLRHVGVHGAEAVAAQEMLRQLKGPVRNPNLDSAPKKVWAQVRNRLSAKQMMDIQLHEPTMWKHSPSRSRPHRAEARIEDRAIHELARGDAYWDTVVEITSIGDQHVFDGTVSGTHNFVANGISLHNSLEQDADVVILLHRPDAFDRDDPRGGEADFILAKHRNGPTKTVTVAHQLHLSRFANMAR

Protein RecA = molecular target: T3, Protein RecA (Mycobacterium tuberculosis, UniProt P9WHJ3); test: Fluorescence Cell-Free Homogeneous Dose Retest to Identify Inhibitors of RecA-Intein Splicing Activity. [Related pubchem assays (depositor defined):AID2097, AID2223, AID489010, AID492950]; assay type: functional
T3 sequence (P9WHJ3 whole entry): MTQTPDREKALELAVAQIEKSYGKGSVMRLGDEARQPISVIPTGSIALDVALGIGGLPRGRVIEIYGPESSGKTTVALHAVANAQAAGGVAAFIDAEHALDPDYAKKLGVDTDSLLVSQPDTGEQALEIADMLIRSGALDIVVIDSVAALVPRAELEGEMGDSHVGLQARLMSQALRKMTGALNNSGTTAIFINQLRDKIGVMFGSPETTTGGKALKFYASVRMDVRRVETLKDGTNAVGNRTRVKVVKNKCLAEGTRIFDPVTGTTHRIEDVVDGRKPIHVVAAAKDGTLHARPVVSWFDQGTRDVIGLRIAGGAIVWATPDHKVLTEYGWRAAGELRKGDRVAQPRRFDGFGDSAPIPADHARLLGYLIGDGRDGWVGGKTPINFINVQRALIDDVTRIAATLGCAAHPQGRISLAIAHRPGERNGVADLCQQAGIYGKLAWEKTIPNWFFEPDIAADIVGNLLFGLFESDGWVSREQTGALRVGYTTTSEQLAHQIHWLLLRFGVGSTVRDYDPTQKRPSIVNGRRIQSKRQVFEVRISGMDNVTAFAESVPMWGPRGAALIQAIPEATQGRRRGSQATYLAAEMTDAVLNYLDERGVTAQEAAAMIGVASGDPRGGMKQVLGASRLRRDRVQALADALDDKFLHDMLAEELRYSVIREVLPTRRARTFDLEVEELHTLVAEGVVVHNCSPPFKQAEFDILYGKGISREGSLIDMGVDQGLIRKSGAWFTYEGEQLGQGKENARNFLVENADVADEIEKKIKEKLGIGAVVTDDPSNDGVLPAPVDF

[4] = inhibitors of intracellular T. cruzi replication, confirmation, NIH3T3 host cells, beta-gal luminescence (AID 2044); assay type: functional, cell-based;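 further: intracellular parasites grown in NIH/3T3 mouse fibroblasts as host cells; luminescent beta-galactosidase reporter signal from transgenic T. cruzi replicating inside host cells; inhibitors lower the luminescence signal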
[5] = cytotoxicity toward NIH3T3 fibroblasts, dose response, counter-screen, cell-based, ATP luminescence, mouse fibroblasts (AID 2010); assay type: functional;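 further: cells exposed to compound for about 90 hours before reading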
[6] = molecular target: T4, Rac GTPase-activating protein 1 (Homo sapiens, UniProt Q9H0H5); test: MgcRacGAP GTPase-activating activity inhibitors, confirmation, biochemical, ADP Hunter fluorescence, primary and confirmatory (AID 624330); assay type: functional
T4 sequence (Q9H0H5 whole entry): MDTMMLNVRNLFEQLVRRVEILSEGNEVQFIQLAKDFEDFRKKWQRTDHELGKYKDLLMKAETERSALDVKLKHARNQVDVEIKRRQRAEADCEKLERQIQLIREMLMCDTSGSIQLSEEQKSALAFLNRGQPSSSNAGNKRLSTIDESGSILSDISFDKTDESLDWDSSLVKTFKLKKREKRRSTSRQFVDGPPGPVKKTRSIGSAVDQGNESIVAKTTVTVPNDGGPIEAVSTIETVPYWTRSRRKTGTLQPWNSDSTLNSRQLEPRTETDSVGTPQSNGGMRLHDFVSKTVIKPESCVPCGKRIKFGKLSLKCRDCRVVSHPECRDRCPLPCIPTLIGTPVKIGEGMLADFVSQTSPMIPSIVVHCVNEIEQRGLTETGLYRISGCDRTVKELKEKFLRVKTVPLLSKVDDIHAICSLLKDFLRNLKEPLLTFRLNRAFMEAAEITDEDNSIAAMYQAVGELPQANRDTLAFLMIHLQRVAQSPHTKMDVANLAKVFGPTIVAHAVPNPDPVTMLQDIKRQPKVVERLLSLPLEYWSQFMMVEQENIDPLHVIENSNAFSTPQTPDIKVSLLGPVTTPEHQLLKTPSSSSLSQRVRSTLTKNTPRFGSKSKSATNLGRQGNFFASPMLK

SMILES: CCN1C(=O)/C(=C/c2nc3ccccc3c(=O)n2-c2ccccc2)c2ccccc21
- IC50 (H9c2): > 79 µM (inactive)

SMILES: COc1ccc(-c2c([C@H]3[C@H]4C=CC[C@@H](C)[C@@H]4C(=O)N3Cc3ccccc3)ccc3ccccc23)cc1
- AC50 (INS1): 9.01 µM (active)

SMILES: CN(C(=O)COC(=O)CCc1nc2ccccc2c(=O)[nH]1)C1CCS(=O)(=O)C1 (centres undefined)
- IC50 [1]: 40.1 µM (active)
- EC50 [2]: > 53 µM (inactive)

SMILES: CCOc1cc(/C=C2/NC(=O)N(CC(=O)OC)C2=O)ccc1O
- IC50 (Large T antigen): 12.5 µM (active)

SMILES: Cc1cc(F)ccc1S(=O)(=O)N(C(=O)c1ccncc1)c1ccc(OC(=O)c2ccncc2)cc1
- IC50 (Large T antigen): 50.7 µM (active)
- AC50 [3]: 4.53 µM (active)
- EC50 (Protein RecA): 14.1 µM (active)

SMILES: CCOC(=O)Cc1nnc(O)c2ccccc12
- IC50 (H9c2): 11.1 µM (active)

SMILES: NC(=NOCC(=O)Nc1ccccc1)c1nonc1N
- IC50 [1]: > 47.1 µM (inactive)
- EC50 [2]: > 53 µM (inactive)

SMILES: O=C(c1cccc(-c2ccc(O)cc2)c1)N1CCOCC1
- IC50 (Large T antigen): 10.2 µM (active)

SMILES: Nc1nn(S(=O)(=O)c2ccccc2)cc1-c1ccc([N+](=O)[O-])cc1
- IC50 [1]: > 47.1 µM (inactive)
- EC50 [2]: > 53 µM (inactive)

SMILES: CCOc1cccc(Nc2cc3n(c(=O)n2)CCc2cc(OC)c(OC)cc2-3)c1
- IC50 (H9c2): 12.8 µM (active)

SMILES: O=C(Cn1nc(Cl)nc1Cl)Nc1ccccc1
- IC50 [1]: > 47.1 µM (inactive)
- EC50 [2]: > 53 µM (inactive)

SMILES: O=C(Nc1ccc(Cl)c(Cl)c1)Nc1nnc(CC2=CCCCC2)s1
- AC50 (INS1): 3.51 µM (active)

SMILES: CS(=O)(=O)N1CCN(C(=O)COc2ccc3ccccc3c2)CC1
- IC50 [1]: > 47.1 µM (inactive)
- EC50 [2]: > 53 µM (inactive)

SMILES: CCOc1ccc2nc(O)c(CN(CCO)C3(c4nnnn4C4CCCCC4)CCCCC3)cc2c1
- IC50 (H9c2): 26.4 µM (active)

SMILES: COc1ccc2nc(O)c(CN(Cc3ccco3)C(c3nnnn3Cc3ccccc3)C(C)C)cc2c1 (centres undefined)
- EC50 [4]: > 60 µM (not active)
- EC50 [5]: > 60 µM (not active)
- IC50 (H9c2): > 79 µM (inactive)

SMILES: CCc1c(C)nc(SCC(=O)N2CCN(c3ccccc3OC)CC2)nc1O
- IC50 [1]: > 47.1 µM (inactive)
- EC50 [2]: > 53 µM (inactive)

SMILES: O=C1CCSc2c1ccc1ccccc21
- IC50 [1]: > 47.1 µM (inactive)
- EC50 [2]: > 53 µM (inactive)

SMILES: COc1cc(NC(=O)[C@H](C)NC(=O)N2CCn3c2nc2ccccc23)cc(OC)c1
- IC50 [1]: > 47.1 µM (inactive)
- EC50 [2]: > 53 µM (inactive)

SMILES: CC(NC(=O)Cn1nc(C(=O)O)c2ccccc2c1=O)c1ccccc1 (centres undefined)
- IC50 (H9c2): 18.3 µM (active)

SMILES: Cc1cccc(NC(=O)Cc2ccc(NC3=NC4CS(=O)(=O)CC4S3)cc2)c1 (centres undefined)
- IC50 [1]: > 47.1 µM (inactive)
- EC50 [2]: > 53 µM (inactive)

SMILES: CCN(C(=O)CCc1nnc2ccc(N3CCC4(CC3)OCCO4)nn12)c1ccccc1
- IC50 [1]: > 47.1 µM (inactive)
- EC50 [2]: > 53 µM (inactive)

SMILES: COc1ccc(-c2cc(C(=O)NC3CCCC3)c3ccccc3n2)cc1OC
- IC50 [1]: > 47.1 µM (inactive)
- EC50 [2]: > 53 µM (inactive)

SMILES: CCC(=O)c1ccc(OCC(=O)NCCCN2CCOCC2)cc1
- IC50 [1]: > 47.1 µM (inactive)
- EC50 [2]: > 53 µM (inactive)

SMILES: C/C(=N\CCCn1ccnc1)c1c(-c2ccccc2)[nH]n(-c2nc3ccccc3s2)c1=O
- IC50 (H9c2): > 79 µM (inactive)

SMILES: COc1cc(/C=N\NC(=O)c2c(C)nc3cc(C)ccn23)ccc1O
- IC50 (Large T antigen): 13.4 µM (active)
- IC50 [6]: 33.3 µM (active)

SMILES: Cc1nc(Cl)cc(N/N=C/c2ccc(O)cc2)n1
- IC50 (Large T antigen): 8.13 µM (active)

SMILES: C/C(CC(=O)Nc1ccc(N(C)C)cc1)=N\NC(=O)c1ccc([N+](=O)[O-])cc1Cl
- IC50 (Large T antigen): 9.88 µM (active)
- IC50 [6]: 66.7 µM (active)

SMILES: CCOc1cc(/C=N\NC(=O)CC(=O)NCCc2ccccc2)ccc1O
- IC50 (Large T antigen): 7.94 µM (active)
- IC50 [6]: 46.5 µM (active)

SMILES: C/C(=N/NC(=O)CSc1nc2ccccc2n1C)c1ccc(O)cc1
- IC50 (Large T antigen): 30.9 µM (active)
- IC50 [6]: 138 µM (active)
